In paper PMC11054303, “Design and Synthesis of Novel N-Benzylidene Derivatives of 3-Amino-4-imino-3,5-dihydro-4H-chromeno[2,3-d]pyrimidine under Microwave, In Silico ADME Predictions, In Vitro Antitumoral Activities and In Vivo Toxicity” (Pharmaceuticals, 2024):

Legend:
[1] = test system: MDA MB231; assay: Antiproliferative assay, MDA MB231; format: cell-based, human; settings: for IC50: Homo sapiens, MDA-MB-231, 48 h incubation, average of three assays, standard error ± 0.5 μM; for Selectivity Index (SI) MDA MB231: SI = IC50 fibroblasts/IC50 on MDA MB231
Procedure: (§1) The potential antiproliferative activity of these novel 3-(N-phenylmethyliden)amino-4-imino-3,5-dihydro-4H-chromeno[2,3-d]pyrimidine 10(a-i) and 10-(N-phenylmethyliden)amino-11-imino-11H-naphto[1′,2′:5,6]pyrano[2,3-d]pyrimidine 10(j-l) was evaluated in a panel of eight tumoral cell lines and in diploid skin fibroblasts used as normal cell lines for control. For these antitumor assays, chosen cell lines represent diverse types of human cancer, which are, respectively, human hepatocellular carcinoma (Huh7 D12), human colon adenocarcinoma (Caco2), human breast adenocarcinoma (MDA-MB231), MDA-MB468 for human breast carcinoma which correspond to the Triple Negative Breast Cancer (TNBC), human colon carcinoma (HCT116), PC3 as cell line initiated from bone metastasis of grade IV prostatic adenocarcinoma from a person, MCF7 as breast cancer line isolated from a person and PANC1, as human pancreatic cancer cell line. The potential antiproliferative activity was preliminarily evaluated in vitro at a 25 μM single dose.
(§2) The IC50 was calculated from the full dose-response curve and used as a parameter for the antiproliferative activity of the new compounds.
(§3) Skin diploid fibroblastic cells were provided by BIOPREDIC International Company (Rennes, France). Huh-7D12 (Ref ECACC: 01042712), Caco2 (Ref ECACC: 86010202), MDA-MB-231 (Ref ECACC: 92020424), MDA-MB-468, HCT-116 (Ref ECACC: 91091005), PC3 (Ref ECACC: 90112714), and MCF7 cell lines were obtained from the ECACC collection. PANC1 cell lines, a generous gift of LBAI Inserm 1227 (Brest, France). Cells were grown according to ECACC recommendations in DMEM for Huh-D12, MDA-MB-231, MDA-MB-468 and fibroblast, in EMEM for Caco2, in McCoy’s for HCT-116 and RPMI for PC3 at 37 °C and 5% CO2. All culture media with 10% of FBS, 1% of penicillin-streptomycin and 2 mM glutamine.
(§4) Chemicals were solubilized in DMSO at a concentration of 10 mM (stock solution) and diluted in a culture medium to the desired final concentrations. […] The toxicity test of the chemicals on these cells was as follows: 2 × 10^3 cells for HCT-116 cells or 4 × 10^3 for the other cells were seeded in 96-multi-well plates in triplicate and left for 24 h for attachment, spreading and growing. Then, cells were exposed for 48 h to increasing concentrations of chemicals, ranging from 0.1 μM to 25 μM, in a final volume of 120 μL of culture medium. After 48 h of treatment, cells were washed in PBS and fixed in a cooled 90% ethanol/5% acetic acid solution for 20 min. The nuclei were stained with Hoechst 3342 (B2261 Merck Sigma-Aldrich) and counted. Image acquisition and analysis were performed using automated imaging analysis with a Cellomics Arrayscan VTI/HCS Reader (Thermo/Scientific, Waltham, MA, USA). The survival percentages were calculated as the percentage of cell number after chemical treatment over cell number after DMSO treatment. The IC50 was graphically determined.

[2] = test system: PANC1; assay: Antiproliferative assay, PANC1; format: cell-based, human; settings: for IC50: Homo sapiens, PANC-1, 48 h incubation, average of three assays, standard error ± 0.5 μM; for Selectivity Index (SI) PANC1: SI = IC50 fibroblasts/IC50 on PANC1
Procedure: as §1, §2, §3, §4

[3] = test system: MCF7; assay: Antiproliferative assay, MCF7; format: cell-based, human; settings: for IC50: Homo sapiens, MCF7, 48 h incubation, average of three assays, standard error ± 0.5 μM; for Selectivity Index (SI) MCF7: SI = IC50 fibroblasts/IC50 on MCF7
Procedure: as §1, §2, §3, §4

[4] = test system: Fibroblasts; assay: Antiproliferative assay, diploid skin fibroblasts (normal cells); format: cell-based; settings: for IC50: Fibroblast, 48 h incubation, average of three assays, standard error ± 0.5 μM
Procedure: as §1, §2, §3, §4

[5] = test system: tumor cell lines; assay: Antiproliferative assay, panel of tumoral cell lines; format: cell-based; settings: Homo sapiens, 48 h, summary over tumoral cell lines of Table 3, 48 h; read-out: IC50 on tumor cell lines (span over the panel)
Procedure: as §1, §2, §3, §4

[6] = test system: Huh7 D12; assay: Antiproliferative assay, Huh7 D12; format: cell-based, human; settings: for IC50: Homo sapiens, Huh-7D12, 48 h incubation, average of three assays, standard error ± 0.5 μM; for Selectivity Index (SI) Huh7 D12: SI = IC50 fibroblasts/IC50 on Huh7 D12
Procedure: as §1, §2, §3, §4

[7] = Antiproliferative assay, Caco2; format: cell-based, human; settings: human, Caco-2; SI = IC50 fibroblasts/IC50 on Caco2; read-out: Selectivity Index (SI) Caco2
Procedure: as §1, §2, §3, §4

[8] = test system: Caco2; assay: Antiproliferative assay, Caco2; format: cell-based, human; settings: Homo sapiens, Caco-2; 48 h incubation; average of three assays, standard error ± 0.5 μM
Procedure: as §1, §2, §3, §4

[9] = test system: MDA MB468; assay: Antiproliferative assay, MDA MB468; format: cell-based, human; settings: for IC50: Homo sapiens, MDA-MB-468, 48 h incubation, average of three assays, standard error ± 0.5 μM; for Selectivity Index (SI) MDA MB468: SI = IC50 fibroblasts/IC50 on MDA MB468
Procedure: as §1, §2, §3, §4

[10] = test system: PC3; assay: Antiproliferative assay, PC3; format: cell-based, human; settings: for IC50: Homo sapiens, PC-3, 48 h incubation, average of three assays, standard error ± 0.5 μM; for Selectivity Index (SI) PC3: SI = IC50 fibroblasts/IC50 on PC3
Procedure: as §1, §2, §3, §4

[11] = test system: HCT 116; assay: Antiproliferative assay, HCT 116; format: cell-based, human; settings: for IC50: Homo sapiens, HCT-116, 48 h incubation, average of three assays, standard error ± 0.5 μM; for Selectivity Index (SI) HCT 116: SI = IC50 fibroblasts/IC50 on HCT 116
Procedure: as §1, §2, §3, §4

[12] = test system: zebrafish Danio rerio embryos; assay: Zebrafish embryo toxicity assay (Zebratox, FET)
Procedure: Fertilized eggs at 24–48 h post-fertilization (hpf) were selected and transferred to a 96-well plate (1 embryo/well). […] DMSO (0.6%) was used as vehicle control for the test compounds. The exposure duration continued up to 72 hpf because it is the endpoint of embryonic development [41]. The dead embryos were eliminated, and the fertilized eggs were imaged at 0, 24, 48 and 72 hpf.
Eggs were collected 2 h post-fertilization (hpf) and kept in glass Petri dishes containing water for subsequent examination under a binocular microscope to confirm fertilization. […] Chemical treatments were performed by adding DMSO alone (negative control), or test molecule. These experiments were performed in four technical replicates.
The experiments were performed using a Zeiss inverted fluorescent microscope (Observer Z1). The zebrafish toxicological test (Zebratox) was realized as follows: the 24 h post-fertilization embryos were arrayed by hand with one embryo per well in black-walled 96-well microplates for fluorescence assays (Perkin Elmer, Waltham, MA, USA). The embryos were treated before hatching from 0 to 72 h post-fertilization. The 20 mM DMSO stock chemicals were diluted in fish water and added to the wells at final concentrations from 0.0 2µM to 5 μM. The negative control (0.25% DMSO) was added to each replicate plate. The experiments were realized in triplicate in three independent plates. […] The zebrafish fertilized eggs were provided by the ImPACcell-Biosit Zebrafish facilities (Rennes, France).

| IC50 [2] [µM] | IC50 [3] [µM] | IC50 [5] [µM] | IC50 [6] [µM] | IC50 [8] [µM] | IC50 [10] [µM] | IC50 [11] [µM] | Structure (SMILES) | IC50 [1] [µM] | Selectivity Index (SI) MDA MB231 [1] | Selectivity Index (SI) PANC1 [2] | Selectivity Index (SI) MCF7 [3] | effect on fibroblasts (healthy skin cell), in words [4] | IC50 [4] [µM] | Selectivity Index (SI) Huh7 D12 [6] | selectivity ratio at 48 h [7] | IC50 [9] [µM] | Selectivity Index (SI) MDA MB468 [9] | Selectivity Index (SI) PC3 [10] | Selectivity Index (SI) HCT 116 [11] | other results |
| --- | --- | --- | --- | --- | --- | --- | --- | --- | --- | --- | --- | --- | --- | --- | --- | --- | --- | --- | --- | --- |
| 17 | 11 | 1 to 25 | 11 | 10 | 11 | 11 | CN(C)c1ccc(/C=N/n2cnc3c(c2=N)Cc2ccccc2O3)cc1 [10d, (3E) 3-N-(4-Dimethylaminophenylmethylidene)amino-4-imino-3,5-dihydro-4H-chromeno[2,3-d]pyrimidine] | 11 | 1.27 | 0.82 | 1.27 | cytotoxic on fibroblasts | 14 | 1.27 | 1.4 | 11 | 1.27 | 1.27 | 1.27 | – |
| > 25 | > 25 | – | > 25 | > 25 | > 25 | > 25 | CCN(CC)c1ccc2c(c1)Oc1ncn(/N=C/c3ccccc3)c(=N)c1C2 [10c] | > 25 | – | – | – | – | > 25 | – | – | > 25 | – | – | – | – |
| – | 10 | 1 to 25 | 6 | 10 | 16 | 24 | COc1cccc2c1Oc1ncn(/N=C/c3ccc(N(C)C)cc3)c(=N)c1C2 [10g, (3E) 3-N-(4-Dimethylaminophenylmethylidene)amino-4-imino-9-methoxy-3,5-dihydro-4H-chromeno[2,3-d]pyrimidine] | > 25 | < 0.44 | – | 1.1 | cytotoxic on fibroblasts | 11 | 1.83 | 1.1 | 18 | 0.61 | 0.69 | 0.46 | – |
| > 25 | > 25 | – | > 25 | > 25 | > 25 | > 25 | CCN(CC)c1ccc2c(c1)Oc1ncn(/N=C/c3ccccc3O)c(=N)c1C2 [10b] | > 25 | – | – | – | – | > 25 | – | – | > 25 | – | – | – | – |
| 1.6 | 1.2 | 1 to 25 | 1.5 | 1.2 | 0.4 | 0.6 | N=c1c2c(ncn1/N=C/c1ccccc1O)Oc1ccc3ccccc3c1C2 [10k, (10E) 10-N-(2-Hydroxyphenylmethylidene)amino-11-imino-11H-naphto[1′,2′:5,6]pyrano[2,3-d]pyrimidine] | 1.1 | 1.34 | 0.94 | 1.25 | cytotoxic on fibroblasts | 1.5 | 1 | 1.25 | 1.8 | 0.83 | 3.75 | 2.5 | – |
| – | 10 | 1 to 25 | 6 | 10 | 16 | 24 | CN(C)c1ccc(/C=N/n2cnc3c(c2=N)Cc2c(ccc4ccccc24)O3)cc1 [10j, (10E) 10-N-(4-Dimethylaminophenylmethylidene)amino-11-imino-11H-naphto[1′,2′:5,6]pyrano[2,3-d]pyrimidine] | > 25 | < 0.44 | – | 1.1 | cytotoxic on fibroblasts | 11 | 1.83 | 1.1 | 18 | 0.61 | 0.69 | 0.46 | – |
| > 25 | > 25 | – | > 25 | > 25 | > 25 | > 25 | CCN(CC)c1ccc2c(c1)Oc1ncn(/N=C/c3ccc(N(C)C)cc3)c(=N)c1C2 [10a] | > 25 | – | – | – | – | > 25 | – | – | > 25 | – | – | – | – |
| – | – | – | – | – | – | – | C#Cc1cccc(Nc2ncnc3cc(OCCOC)c(OCCOC)cc23)c1 [erlotinib, reference compound] | – | – | – | – | – | – | – | – | – | – | – | – | toxicity on zebrafish embryos ([12]; 1 μM dose, 72 hpf): no toxicity; hatching of the embryos ([12]; treatment for 48 and 72 hpf): complete hatching |
| – | 0.09 | – | 0.06 | 0.03 | 0.07 | 0.07 | COc1cccc2c1C(=O)c1c(O)c3c(c(O)c1C2=O)C[C@@](O)(C(=O)CO)C[C@@H]3O[C@H]1C[C@H](N)[C@H](O)[C@H](C)O1 [Doxorubicin, reference compound] | 0.02 | 0.50 | – | 0.11 | – | 0.01 | 0.16 | 0.33 | 0.03 | 0.33 | 0.14 | 0.14 | – |
| 2.2 | 1.7 | 1 to 25 | 1.7 | 2 | 0.15 | 0.3 | N=c1c2c(ncn1/N=C/c1ccccc1O)Oc1ccccc1C2 [10e, (3E) 3-N-(2-Hydroxyphenylmethylidene)amino-4-imino-3,5-dihydro-4H-chromeno[2,3-d]pyrimidine] | 1.5 | 1.07 | 0.73 | 0.94 | cytotoxic on fibroblasts | 1.6 | 0.94 | 0.8 | 2.5 | 0.64 | 10.67 | 5.33 | – |
